Results published in patent publication US20190076555A1, “TUMOR TARGETING NANOAGENT FOR IMAGING AND FLUORESCENT GUIDED RESECTION OF TUMORS” (priority 2017, published 2019).
Ends that are not written are not given here.

Key:
[1] = Absorbance spectra of free and conjugated ICG (600-900 nm); assay type: physicochemical; details: PBS pH7.4
Experimental: Absorbance of free and conjugated ICG was measured within a wavelength range of 600-900 nm. Stock solution of free ICG was prepared in DMSO at a concentration of 25 mM and sample was diluted in PBS, pH7.4. FIGS. 3A-3J illustrate absorbance spectra of free and conjugated ICG.

U87 MG glioma cells = assay: Competition with binding of NIA to glioma cells by flow cytometry; set-up: species or system human; details: 5 μM NIA (100%) competed with 125 μM competitor
Experimental: FIG. 11C illustrates flow cytometry histogram for CTX (not fluorescent) competing with binding of NIA (content 5 μM CTXtot) at various concentrations of competing CTX. The following combinations were tested: PBS no ligand (solid line), NIA+125 μM CTX (dashed line), NIA+50 μM CTX (dotdashed line), NIA+5 μM (longdashed line), and NIA 5 μM (dash-twodotted line). […] The abscissa intercept indicates the maximum level of fluorescence decrease due to competition at extrapolated infinite concentrations of CTX.
The saturation curves in the insets were calculated as average fluorescence intensities as function of overall CTX, (CTXtot), concentrations. […] Each molecule of NIA contains on average 7.75 groups of CTX. […] Since the inhibitors are not fluorescence labeled, the inhibition would be indicated by the reduction of MFI if NIA is the competed ligand.

CC1(C)C(/C=C/C=C/C=C/C=C2\N(CCCCS(=O)(=O)O)c3ccc4ccccc4c3C2(C)C)=[N+](CCCCS(=O)(=O)[O-])c2ccc3ccccc3c21 [free ICG, Indocyanine Green]
maximum absorbance wavelength ([1]; high concentration 100 μM ICG): 695 nm | maximum absorbance wavelength ([1]; lower concentration 3 μM ICG): 780 nm

P/LLL(40%): polymalic acid with tri-leucine (40%), not fluorescence labelled competitor (Leu-Leu-Leu; not fully specified)
decrease in mean fluorescence intensity of NIA (U87 MG glioma cells): 41-46%
